Measurements: patent publication US10098895B2, “Treatment of symptoms related to neurodegenerative disorders through pharmacological dermal activation of cranial nerves” (GLIA, LLC, priority 2016, dated 2018)

How the values were obtained:
Assay type in all cases: in vivo, human
[1] = system: herpes ophthalmicus and herpes keratitis; test: Example 8: herpes ophthalmicus and herpes keratitis patient
Description: A patient experienced an episode of herpes ophthalmicus and herpes keratitis in September 2003, resulting in thinning melt of the left cornea, loss of vision, inflammation, neuralgia, and a rash of blisters to the left forehead, upper nose, and temple with a subsequent full left-face palsy droop, which required multiple cosmetic surgical procedures to provide some symmetry to the face and partial closure to the eyelids of the left eye.
No corneal graft to the left eye could be attempted due to recurrent thinning of the full cornea and inflammation of the vasculature. The patient was treated with ophthalmic prednisolone, topical and systemic antivirals, topical antibiotics, bandage lens, punctal plugs, and over-the-counter artificial tears and gels. This treatment regimen was continued until January 2011 when the cornea thinned to probable melt-through, necessitating corneal patch surgery. Just prior to the surgery, the patient's vision was measured at 20/2000, or finger vision.
The patient started applying 1% progesterone to their forehead twice daily just before corneal patch surgery planned for January 2011. The dose of progesterone was approximately 1 mg per application.
In September 2014, corneal tissue had sufficiently epithelialized at the perimeter to attempt a corneal graft, which was successfully completed. Progesterone 1% was applied daily to the forehead post-surgery. Within 9 months vision was restored to best correct vision pinhole 20/50.
In February 2015, the patient's visual acuity decreased as a result of the rejection of cells at the lower part of the graft. Moderate central staining continued to persist in a band where eyelids could not close. Intraocular pressure (TOP) in the left eye rose to 22 mmHg. The patient was placed on a treatment regimen that included Prednisolone Forte 6× plus Restasis for rejection 2× daily and oral valacycovir, together with mechanically taping the eyelid closed at night.
In May 2016, the patient initiated a course of twice daily dronabinol treatment, 0.5 mg each dose, to both ears. Through July, stabilization was achieved, and all other medications were discontinued. […] Visual acuity improved to 20/40.

chronic ocular GVHD = test: Example 5: second case of chronic ocular GVHD, tear film breakup time by Keratograph 5
Procedure: A patient with chronic ocular GVHD complained of eye discomfort, burning, and sticking lids. […] Their first-measured tear film breakup time was 7.4 seconds, with an average breakup time of 11.39 seconds. The patient was treated with a single dose of progesterone 1% to their forehead, followed by retesting of the tear film breakup time after 30 minutes. At that time, the first-measured tear film breakup time was 21.03 seconds, with an average breakup time of 21.35 seconds. The tear meniscus height in both eyes increased over 0.6 mm following the single application of progesterone.

[2] = system: Parkinson's disease symptoms; test: Example 2: Parkinson's disease subject, topical progesterone and testosterone
Description: A person was diagnosed with Parkinson's disease in August of 2015. Notable symptoms include both resting and action tremor of the left hand and fingers, forearm, and, to a lesser extent, the right hand and the left leg. Handwriting and computer keyboard work were difficult. They had ocular symptoms associated with the disease, including dry eye disease with moderate to severe burning and grittiness, rapid blink rate, and partial blinking. They used artificial tears constantly in an attempt to alleviate the ocular symptoms. They had not been on any Parkinson's medications. Their Parkinson's tremor followed an “on-off” cycle that correlated with their stress levels, the “on” cycle being times with low stress and few symptoms, and the “off” cycle induced by stress showing an increase in symptoms.
In late February 2017, the subject started applying single daily doses of 0.125% testosterone to the forehead and ear conchae. By the third day of treatment, the subject was tremor-free for periods of 4-6 hours, and the “on” part of the cycle was more frequent. […] The dose of testosterone was increased to 0.2% once daily in early April.
In July 2017, testosterone application was stopped after a taper to evaluate its effects. […] On Aug. 17, 2017, they reported extreme anxiety.
That same afternoon, the subject applied 0.2% testosterone to their forehead and ear conchae, and the next day reported less anxiety and more “on” cycles. By Aug. 20, 2017, they reported having stabilized on the once daily applications with a 60% or greater increase in “on” periods. On August 28, they reported going 9 hours without tremors and leg spasms. On Aug. 30, 2017, the subject was able to walk 8 miles and exercised in between. They described themself as feeling 100%.

[3] = system: Parkinson's tremor and ocular graft-versus-host disease; test: Example 3: Parkinson's tremor and co-morbid ocular graft-versus-host disease, topical progesterone
Description: A person was diagnosed with Parkinson's disease over 3 years ago, leukemia about 2 years ago, and ocular graft versus host disease resulting from allogeneic stem cell treatment for the leukemia. The patient has been on oral carbidopa-levodopa for at least 2 years.
The patient started treatment with twice daily progesterone 1% gel applied to the forehead to promote ocular secretion of tear film, and to resolve other symptoms and signs of surface eye disease. […] On a follow up visit 5 weeks later, they reported continued relief from burning and photophobia.
When the patient was first seen in June 2016, they had noticeable significant tremors in both hands and multiple fingers. These were related to their Parkinson's disease as diagnosed and included muscle contractions, i.e., dyskinesia, related to their carbidopa-levodopa oral treatment.
During the 5-week ophthalmologist follow-up visit, the progesterone treatment regimen was performed in the office in modified form. More specifically, the daily dose of progesterone was divided, with 1 mg applied to the concha of each ear, excluding the forehead, to which progesterone had been applied 6 hours earlier. The patient reported improved moisture and comfort in both eyes approximately 2 minutes post application.
The patient had taken carbidopa-levodopa extended release medication at 6 am that morning, with an added immediate release dose at 8 am. The visit to the ophthalmologist was at 2 pm. At that point there was uncontrolled movement of the hands (dyskinesia) along with finger vibrations. The patient reported that the usual duration of efficacy of their carbidopa-levodopa regimen was 4 hours. Normally they would have taken another carbidopa-levodopa dose at 2 pm. Instead, progesterone was applied to the concha of both ears as described, supra.

## CC(=O)[C@H]1CC[C@H]2[C@@H]3CCC4=CC(=O)CC[C@]4(C)[C@H]3CC[C@]12C [progesterone]
[1]; 1% progesterone to forehead twice daily, approximately 1 mg per application, from January 2011
  corneal thinning: corneal thinning stabilized
[1]; Progesterone 1% daily to forehead after corneal graft, within 9 months
  best correct vision pinhole: 20/50
[1]; progesterone treatment continued over two years
  corneal melt-through: without corneal melt-through
[1]; when using Progesterone 1%
  tear film breakup and meibomian glands: tear film breakup was normal and meibomian glands functioned well
Chronic ocular GVHD; progesterone twice a day to forehead
  duration of increased ocular comfort with each dose: at least 5 hours
Chronic ocular GVHD; single application of progesterone 1% to forehead
  increase in tear meniscus height in both eyes: over 0.6 mm
Chronic ocular GVHD; single dose progesterone 1% to forehead, after 30 minutes, pre-treatment 7.4 seconds
  first-measured tear film breakup time: 21.03 s
Chronic ocular GVHD; single dose progesterone 1% to forehead, after 30 minutes, pre-treatment 11.39 seconds
  average tear film breakup time: 21.35 s
[2]; progesterone 1% to forehead
  tremors: no impact on the tremors
[2]; progesterone 1% to forehead, within the first week
  dry eye disease: dry eye disease resolved
[2]; topical progesterone additionally applied to the ear conchae
  tremor symptoms: minimal impact on tremor symptoms
[2]; topical progesterone continued during testosterone abstinence
  dry eye disease: continued to be well managed
[3]; low dose progesterone USP added to conchae of outer ears
  onset of tremor cessation: rapid cessation of tremor within minutes
[3]; progesterone 1 mg to the concha of each ear
  time to improved moisture and comfort in both eyes: approximately 2 minutes
[3]; progesterone 1 mg to the concha of each ear, 2 minutes post application
  reduction of tremors in hands and fingers in frequency and amplitude: about 90%
[3]; progesterone 1% gel twice daily to forehead, after initial treatment
  tear film secretion: tear film secretion was improved
[3]; progesterone 1% gel twice daily to forehead, after initial treatment, on oral carbidopa-levodopa
  photophobia and burning: immediate relief of photophobia and burning
[3]; progesterone applied to ear conchae regions
  facial masking and facial expression: decreased facial masking and more voluntary facial expressions
[3]; progesterone applied to the forehead only, 5 weeks
  hand and finger tremors: no change seen in the hand and finger tremors
[3]; topical progesterone to both conchae and forehead, carbidopa-levodopa at lower dosing frequency, 5 days
  tremor: remained tremor-free until the subsequent visit 5 days later
